From patent US20250332249A1, “CYTOM[…] CELL EPITOPES AND USES THEREOF” (LA JOLLA INSTITUTE FOR IMMUNOLOGY, priority 2021, published 2025)
Where no end group is shown, it is not given here.

Test system: PBMCs from HCMV seropositive subjects
Test: ex vivo IFN-γ Fluorospot assay
Type: cell-based, human
Conditions: 19 HCMV seropositive subjects, individual peptide 10 ug/ml, 20 hr; for No. of subjects responding: IFN-γ; for Magnitude of response: IFN-γ spots (FIG. 1: SFC/10^6 PBMC; no unit in table)
Experimental: To define the targets of HCMV-specific T cell epitopes recognized in healthy adults, the inventors screened PBMCs of 19 subjects, 10 males and 9 females, recruited from San Diego blood bank (SDBB). The HCMV seropositivity of all the subjects was confirmed by IgG ELISA (FIG. 6A). A total of 2593 HCMV peptides covering a total of 563 ORFs (1) were tested. However, as many of these predicted ORFs overlapped 100% with others, as they were internal to longer ORFs, these 563 contained 359 completely unique ORFs composed of ˜150“canonical” ORFs, and an additional ˜200 identified by ribosomal RNA profiling (1). These peptides corresponded to predicted dominant epitopes, based on a bioinformatic method that predicts promiscuous binding to HLA class II molecules (40). Each of the ORFs above was covered by multiple predicted epitopes (with a minimum of at least 2), with the exception of very small ORFs (less than 15-20 amino acid residues), in which case at least one peptide was synthetized. The 2593 peptides were arranged in 89 pools of 28-30 15-mer peptides. PBMC reactivity of each of the 89 pools was assayed directly ex vivo using an IFN-γ Fluorospot assay.
For the initial CMV ORF screen, the responses of 19 CMV-seropositive subjects were evaluated. PBMCs were stimulated with 89 pools covering 563 ORFs of HCMV. Each pool comprised of 28-30 15-mer peptides overlapping by 10 residues. PBMCs that were found reactive to a pool were further tested against individual peptides contained in the pool using IFN-γ Fluorospot assay.
PBMC were thawed, washed and counted for viability using the trypan blue exclusion method. 200,000 cells were plated in triplicates and stimulated with pools (2 ug/ml) or peptides (10 ug/ml), PHA (10 ug/ml) or medium containing equivalent amount of DMSO in 96-well plates (Immubilion-P, Millipore) previously coated with anti IFN-γ antibody (1-DIK, Mabtech, Stockholm, Sweden). After 20 hr incubation at 37° C., cells were discarded and wells were washed six times with PBS/0.05% Tween 20 using an automated plate washer and further incubated with IFN-γ antibody (7-B6-1-FS-BAM) for 2 hrs at room temperature. After incubation, wells were washed and incubated with fluorophore conjugated anti-BAM-490 antibody for 1 hr at room temperature. Finally, the plates were washed and incubated with fluorescence enhancer for 15 min, blotted dry and fluorescent spots were counted by computer assisted image analysis (IRIS Fluorospot reader, Mabtech, Sweden).
Each pool or peptide was considered positive compared to the background that had equivalent amount of DMSO based on the following criteria: (i) 20 or more spot forming cells (SFC) per 10^6 PBMC after background subtraction, (ii) the stimulation index greater than 2, and (iii) p<0.05 by student's t test or Poisson distribution test

Row | Substance | No. of subjects responding | Magnitude of response
1 | 98 (IKMWFLLGAPMIAVL) [compound 98] | 3 | 2867
2 | 205 (VVAYVILERLWLAAR) [compound 205] | 1 | 23
3 | 104 (SSCAHTTCRSATSLV) [compound 104] | 2 | 104
4 | 222 (PSQEILLLCARHLDE) [compound 222] | 3 | 110
5 | 140 (MSTKRSTVPWYPITQ) [compound 140] | 3 | 477
6 | 143 (VVRKYWTFTNPNRIL) [compound 143] | 3 | 16876
7 | 69 (HTFKVRVYQKVLTFR) [compound 69] | 1 | 423
8 | 76 (QLQFTYDTLRGYINR) [compound 76] | 3 | 2236
9 | 30 (HLLRNIKTAFGMRVL) [compound 30] | 2 | 1093
10 | 28 (LHCMRYLTSSLVKRY) [compound 28] | 1 | 150
11 | 221 (DFRDLLNFIRQRLCC) [compound 221] | 1 | 30
12 | 2 (RYNALTVRSRDSLLL) [compound 2] | 2 | 204
13 | 215 (VCAFCWLVLPHRLEQ) [compound 215] | 1 | 1960
14 | 46 (SYRSTYIILLLTWFA; ends and bridges not checked) [compound 46] | 3 | 3990
15 | 131 (PFTVLRLSYAYRIFA; ends and bridges not checked) [compound 131] | 1 | 33
16 | 206 (IRRWWISVAIVIFIG) [compound 206] | 3 | 10480
17 | 85 (RVGITIQQLNVYHQL) [compound 85] | 1 | 963
18 | 181 (SPVAAELPHPSPAPM) [compound 181] | 2 | 166
19 | 48 (RRRMVSVTLFSPYSV; ends and bridges not checked) [compound 48] | 1 | 53
20 | 232 (ITFCLYVGQFLAYVR) [compound 232] | 1 | 27
21 | 154 (RCCTLRFRRRCRARC) [compound 154] | 2 | 713
22 | 146 (GNLQVTYVRHYLKNH) [compound 146] | 4 | 655

Row | Substance | No. of subjects responding | Magnitude of response
23 | 101 (PEYIVQIQNAFETNQ) [compound 101] | 4 | 527
24 | 162 (VCLILSFSIVTAALW) [compound 162] | 1 | 43
25 | 165 (LVKQIKVRVDMVRHR) [compound 165] | 3 | 580
26 | 177 (STPFLMEHTMPVTHP) [compound 177] | 4 | 740
27 | 204 (FPSARDIPKQLPEQP) [compound 204] | 1 | 27
28 | 235 (GLVYRELHDFYGYLQ) [compound 235] | 1 | 963
29 | 211 (LFCGACVITRSLLLI) [compound 211] | 1 | 487
30 | 224 (LFRAGLMKVYVRRRY) [compound 224] | 1 | 870
31 | 188 (MLRLLFTLVLLALYG) [compound 188] | 3 | 4593
32 | 9 (ALFTHFVGRPRHCRL) [compound 9] | 1 | 57
33 | 8 (AITLFFFLLALRIPQ) [compound 8] | 1 | 207
34 | 199 (SSIFTSTHRGVIVAP) [compound 199] | 1 | 27
35 | 52 (IQTMELMIRTVPRIT) [compound 52] | 2 | 384
36 | 193 (FCVYRYNARLTRGYV) [compound 193] | 3 | 700
37 | 4 (GLWVSSYLVRRPMTI; ends and bridges not checked) [compound 4] | 2 | 890
38 | 63 (AFKLDLLRMIAVSRT) [compound 63] | 2 | 477
39 | 200 (LSVRYLSLTAYMLLA) [compound 200] | 1 | 1200
40 | 34 (LRIIRLLRASIRHEY; ends and bridges not checked) [compound 34] | 1 | 810
41 | 228 (LRYKWLIRKDRFIVR) [compound 228] | 1 | 3247
42 | 81 (YLFKRMIDLSSISTV) [compound 81] | 1 | 67
43 | 139 (PWYPITQARTLELTP) [compound 139] | 2 | 996
44 | 7 (MRTVPVTKLYTSRMV) [compound 7] | 1 | 5677

Row | Substance | No. of subjects responding | Magnitude of response
45 | 84 (QILWTDGLARRTRDR) [compound 84] | 1 | 37
46 | 229 (TNIMLQVSNVTNHTL) [compound 229] | 1 | 58
47 | 39 (VNAVNKLVYTGRLIM; ends and bridges not checked) [compound 39] | 1 | 340
48 | 207 (RWQFAVCAASKTATR) [compound 207] | 1 | 50
49 | 61 (ASKIKMLETRVTLAL) [compound 61] | 1 | 140
50 | 149 (CDLPLVSSRLLPETS) [compound 149] | 1 | 123
51 | 64 (MLFFQRYAPAFVTGY) [compound 64] | 1 | 57
52 | 67 (TDLIRFERNIVCTSM) [compound 67] | 3 | 273
53 | 144 (TFDVRQFVFDNARLV) [compound 144] | 6 | 13736
54 | 15 (FVAESITEFLNIGLR) [compound 15] | 1 | 530
55 | 31 (ARNLMEFARVGLRAV) [compound 31] | 1 | 1450
56 | 118 (RPKRRVVAPFRVAAA; ends and bridges not checked) [compound 118] | 2 | 283
57 | 47 (LTLRRTIGTLSRLVP; ends and bridges not checked) [compound 47] | 1 | 163
58 | 25 (GVSSVTLLKIFSQVP) [compound 25] | 2 | 220
59 | 94 (SFYLVNAMSRNLFRV) [compound 94] | 1 | 43
60 | 26 (VLATLAAVRTRRRSV) [compound 26] | 2 | 340
61 | 1 (NGIRWQYQELQYLVE) [compound 1] | 2 | 222
62 | 230 (IVVGLPFFLEYAKHH) [compound 230] | 2 | 1250
63 | 70 (YQKVLTFRRSYAYIH) [compound 70] | 1 | 40
64 | 72 (QLMPDDYSNTHSTRY) [compound 72] | 5 | 45517
65 | 210 (LWYLGDYGAILKIYF) [compound 210] | 1 | 40
